Reference: ChEMBL document CHEMBL3769305, “Glucose-functionalized amino-OPEs as biocompatible photosensitizers in PDT” (Eur J Med Chem, 2016)

Assay: Induction of singlet-oxygen generation at 5 x 10^-5 M irradiated at 380 nm by uric acid degradation assay
Format: physicochemical
Conditions: 0.38 µM; call rule not given here

COc1cc(C#Cc2cc(OC)c(C#Cc3cc(OC)c(C#CCO[C@@H]4O[C@H](CO)[C@@H](O)[C@H](O)[C@H]4O)cc3OC)cc2OC)c(OC)cc1C#CCO[C@@H]1O[C@H](CO)[C@@H](O)[C@H](O)[C@H]1O
Activity: Not Active
